Test [1] concerns the target T1, muHCN2 (Mus musculus, UniProt O88703).
T1 construct: expressed in transfected cells
T1 sequence (O88703 1-863): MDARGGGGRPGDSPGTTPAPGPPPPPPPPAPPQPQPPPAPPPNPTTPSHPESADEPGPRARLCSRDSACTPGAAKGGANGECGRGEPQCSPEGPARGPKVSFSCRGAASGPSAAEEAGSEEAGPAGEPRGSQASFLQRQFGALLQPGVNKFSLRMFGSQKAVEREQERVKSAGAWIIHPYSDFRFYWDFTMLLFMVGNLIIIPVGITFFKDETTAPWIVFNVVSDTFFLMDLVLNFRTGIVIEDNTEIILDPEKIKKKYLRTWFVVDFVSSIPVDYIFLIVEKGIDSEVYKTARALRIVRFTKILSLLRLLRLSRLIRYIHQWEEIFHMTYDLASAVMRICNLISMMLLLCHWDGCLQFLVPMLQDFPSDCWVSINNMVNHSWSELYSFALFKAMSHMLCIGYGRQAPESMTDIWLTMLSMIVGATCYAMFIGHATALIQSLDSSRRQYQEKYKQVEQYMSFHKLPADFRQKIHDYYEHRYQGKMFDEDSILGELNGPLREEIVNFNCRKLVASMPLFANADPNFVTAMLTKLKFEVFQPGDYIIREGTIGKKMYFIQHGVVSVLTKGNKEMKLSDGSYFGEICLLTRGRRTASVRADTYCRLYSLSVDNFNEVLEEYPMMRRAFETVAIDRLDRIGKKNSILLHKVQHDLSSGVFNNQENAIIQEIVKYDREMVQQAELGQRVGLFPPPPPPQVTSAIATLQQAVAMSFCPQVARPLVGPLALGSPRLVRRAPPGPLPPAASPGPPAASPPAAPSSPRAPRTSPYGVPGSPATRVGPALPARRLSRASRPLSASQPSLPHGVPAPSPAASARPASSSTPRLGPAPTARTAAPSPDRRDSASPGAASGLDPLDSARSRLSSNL
Briefly: Patch-clamp (electrophysiological) examination in the same cells. Format: cell-based, murine. Conditions: determined electrophysiologically in the same cells. The source says: Using the patch-clamp method, the cells with detectable mRNA expression were examined electrophysiologically, in the whole-cell configuration, for functional expression of muHCN2. This method is described in detail in Hamill et al (1981), which is incorporated herein by reference. The cells were clamped to a holding potential of −40 mV. Starting with this holding potential, the ion channels were activated by a voltage change to […] for a period of one second. The current amplitude was determined the end of this pulse. Among the transfected HEK cells, some were found having currents of about 1 nA; however, owing to interfering endogenous currents, it was not possible to construct an assay for these cells in the FLIPR.
Electrophysiologically, currents of up to 11 nA were measured. These cells were used for constructing an FLIPR assay for HCN2.
Using the transfected HCN cells, the effect of various concentrations of the substance zatebradine, which is known as an If blocker, were examined. The inhibition by zatebradine was calculated from the relative change in fluorescence from the time 60 seconds. For each concentration of the inhibitor, the mean of in each case 6 wells of the microtiter plate was determined.

Test [2] concerns the target T1, muHCN2. The experiment in a line: FLIPR membrane potential assay (DiBac4(3)) with transfected HCN cells. In kind it is cell-based, murine. Conditions: muHCN2-transfected CHO cells, relative change in fluorescence from the time 60 seconds, mean of 6 wells per concentration, read-out: IC50 of zatebradine (inhibition calculated from relative change in fluorescence). As to the method:
The cells seeded on the microtiter plates are washed in an isoosmolar buffer in which NaCl has been replaced by choline chloride. However, this wash buffer also contains 5 mM KCl, since extracellular K^+ is important for HCN activation (Biel et al. 1999). This wash buffer, which serves to effect hyperpolarization of the HCN cells, also contains 5 μM DiBac4(3) for measuring changes in the membrane potential in the FLIPR. By removing the extracellular Na^+, the cells are hyperpolarized, i.e. the HCN is activated. However, the HCN is not capable of causing depolarization of the cells, since the required concentration gradient of the ions Na^+ or K^+ transported by HCN is missing. […] This is reflected in the fact that the initial fluorescence measured for HCN cells in the FLIPR at 10 μM forskolin is lower than that without forskolin, whereas there is no difference in nontransfected cells.
Since DiBac4(3) fluorescence may be sensitive to temperature variations, the measurement is, after an incubation at 37° C. for 30 minutes, carried out as quickly as possible—cooling of the dye solution may affect the measured results. […]
In the FLIPR, Na^+ is added to the cells so that the activated HCN (after a few seconds, in which there are mixing effects) causes, from about 15 seconds after the addition of Na^+, depolarization of the cells, which becomes visible by an increase in fluorescence. […]

A word on the IC50: it is the concentration that gives 50% inhibition. Regarding `COc1ccc(CCN(C)CCCN2CCc3cc(OC)c(OC)cc3CC2=O)cc1OC` [zatebradine, 3-[3-[[2-(3,4-dimethoxyphenyl)ethyl]methylamino]propyl]-1,3,4,5-tetrahydro-7,8-dimethoxy-2H-3-benzazepin-2-one], the IC50 on muHCN2 [1] was 31 µM; at muHCN2 [2] it was 26 µM.

These data come from US7550257B2, “Process for identifying substances which modulate the activity of hyperpolarization-activated cation channels” (Sanofi-Aventis Deutschland GmbH, priority 2000, dated 2009).
